Test results: ChEMBL document CHEMBL4477199, “Design and synthesis of novel bicalutamide and enzalutamide derivatives as antiproliferative agents for the treatment of prostate cancer” (Eur J Med Chem, 2016)

Columns and labels:
CWR22R [1] = assay: Antiproliferative activity against human 22Rv1 cells after 96 hrs by propidium iodide staining based fluorescence 2D monolayer assay; type: functional, cell-based; conditions: 22Rv1, 96 h
DU-145 [2] = assay: Antiproliferative activity against human DU145 cells after 96 hrs by propidium iodide staining based fluorescence 2D monolayer assay; type: functional, cell-based; conditions: DU-145, 96 h
LNCaP [3] = assay: Antiproliferative activity against human LNCAP cells after 96 hrs by propidium iodide staining based fluorescence 2D monolayer assay; type: functional, cell-based
VCaP [4] = assay: Antiproliferative activity against human VCaP cells after 96 hrs by propidium iodide staining based fluorescence 2D monolayer assay; type: functional, cell-based
LNCaP [5] = assay: Antiproliferative activity against human LNCAP cells assessed as relative inhibition after 96 hrs by propidium iodide staining based fluorescence 2D monolayer assay; type: functional, cell-based
DU-145 [6] = assay: Antiproliferative activity against human DU145 cells assessed as relative inhibition after 96 hrs by propidium iodide staining based fluorescence 2D monolayer assay; type: functional, cell-based; conditions: DU-145, 96 h
CWR22R [7] = assay: Antiproliferative activity against human 22Rv1 cells assessed as relative inhibition after 96 hrs by propidium iodide staining based fluorescence 2D monolayer assay; type: functional, cell-based; conditions: 22Rv1, 96 h
VCaP [8] = assay: Antiproliferative activity against human VCaP cells assessed as relative inhibition after 96 hrs by propidium iodide staining based fluorescence 2D monolayer assay; type: functional, cell-based
[9] = 96 h
Description: Solubility in RPMI1640 culture medium at <30 uM incubated for 4 days by microscopic analysis

[10] = 33000 µM
Description: Solubility in 100% DMSO at 33 mM at -20 degC

[11] = target: T1, Androgen receptor (Rattus norvegicus) (UniProt P15207); assay: (§1) Antagonist activity at rat androgen receptor fused with DNA-binding domain of GAL4 expressed in AR-UAS-bla GripTite 293 cells assessed as inhibition of R1881-induced receptor activation preincubated for 30 mins followed by R1881 addition measured after 16 to 24 hrs by betalactamase reporter gene assay; type: cell-based
T1 sequence (whole entry): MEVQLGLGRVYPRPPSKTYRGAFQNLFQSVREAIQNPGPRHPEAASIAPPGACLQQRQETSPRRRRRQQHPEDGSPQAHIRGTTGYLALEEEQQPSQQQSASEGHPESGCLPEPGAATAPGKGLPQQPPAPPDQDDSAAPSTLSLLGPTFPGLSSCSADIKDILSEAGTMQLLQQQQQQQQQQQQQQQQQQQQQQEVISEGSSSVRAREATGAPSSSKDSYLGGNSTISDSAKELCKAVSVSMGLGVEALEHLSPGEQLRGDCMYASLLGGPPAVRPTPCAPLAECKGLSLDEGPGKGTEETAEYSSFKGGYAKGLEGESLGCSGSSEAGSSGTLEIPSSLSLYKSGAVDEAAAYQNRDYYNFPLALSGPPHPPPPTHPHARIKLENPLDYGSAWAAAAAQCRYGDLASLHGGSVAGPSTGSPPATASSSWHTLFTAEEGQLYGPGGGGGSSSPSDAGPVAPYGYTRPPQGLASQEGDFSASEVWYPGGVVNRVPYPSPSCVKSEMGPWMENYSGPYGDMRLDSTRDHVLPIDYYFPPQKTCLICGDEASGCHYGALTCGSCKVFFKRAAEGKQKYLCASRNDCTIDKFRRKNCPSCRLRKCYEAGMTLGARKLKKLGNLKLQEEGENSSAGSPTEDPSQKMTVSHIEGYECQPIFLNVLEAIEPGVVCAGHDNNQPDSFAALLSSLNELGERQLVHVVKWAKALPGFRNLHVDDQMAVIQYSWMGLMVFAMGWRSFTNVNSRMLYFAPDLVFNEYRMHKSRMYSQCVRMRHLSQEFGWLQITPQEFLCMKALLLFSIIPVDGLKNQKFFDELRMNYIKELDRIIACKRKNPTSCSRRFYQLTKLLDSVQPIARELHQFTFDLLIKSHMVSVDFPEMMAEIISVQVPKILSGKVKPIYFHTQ

Androgen receptor = target: T2, Androgen receptor (Rattus norvegicus, UniProt P15207); assay: as §1; type: cell-based
T2 sequence (P15207 whole entry): T1 sequence (whole entry)

[12] = Half life in human liver microsomes at 3 uM preincubated with compound followed by NADPH addition by LC-MS/MS analysis
HepG2 = assay: Cytotoxicity against human HepG2 cells assessed as reduction in cell viability after 72 hrs by MTT assay; type: functional, cell-based; conditions: HepG2, 72 h; for minimal effective concentration: read-out: MEC
in vitro = conditions: human
[13] = Apparent permeability from apical to basolateral side in human Caco2 cells at 10 uM incubated for 120 mins by LC-MS/MS analysis; conditions: Caco-2
[14] = Apparent permeability from basolateral to apical side in human Caco2 cells at 10 uM incubated for 120 mins by LC-MS/MS analysis; conditions: Caco-2
[15] = Efflux ratio of apparent permeability from basolateral to apical side over apical to basolateral side in human Caco2 cells at 10 uM incubated for 120 mins by LC-MS/MS analysis; conditions: Caco-2

SMILES | IC50 (CWR22R [1]) [µM] | IC50 (DU-145 [2]) [µM] | IC50 (LNCaP [3]) [µM] | IC50 (VCaP [4]) [µM] | solubility [9] | solubility [10] | inhibition [11] | IC50 (Androgen receptor) [µM] | other results
CC(O)(CS(=O)(=O)c1ccc(OC(F)(F)F)cc1)C(=O)Nc1ccc([N+](=O)[O-])cc1C(F)(F)F (stereo unspecified) | ≥ 100 | ≥ 100 | ≥ 100 | ≥ 100 | Soluble | Soluble | – | – | IC70 (CWR22R [1]): > 100 µM; IC70 (DU-145 [2]): > 100 µM; IC70 (LNCaP [3]): > 100 µM; IC70 (VCaP [4]): > 100 µM; IC50 (LNCaP [5]): > 100 µM; IC70 (LNCaP [5]): > 100 µM; IC50 (DU-145 [6]): > 100 µM; IC70 (DU-145 [6]): > 100 µM; IC50 (CWR22R [7]): > 100 µM; IC70 (CWR22R [7]): > 100 µM; IC50 (VCaP [8]): > 100 µM; IC70 (VCaP [8]): > 100 µM
CC(O)(CSc1ccccc1C(F)(F)F)C(=O)Nc1ccc([N+](=O)[O-])cc1C(F)(F)F (stereo unspecified) | 12 | 17.5 | 11.7 | 12.8 | Soluble | Soluble | Dose-dependent effect | 0.332 | –
CC(O)(CSc1ccccc1OC(F)(F)F)C(=O)Nc1ccc([N+](=O)[O-])cc1C(F)(F)F (stereo unspecified) | 4.64 | 6.57 to 6.58 | 3.31 | 5.27 | Soluble | Soluble | – | – | IC70 (CWR22R [1]): 6.31 µM; IC70 (DU-145 [2]): 8.16 µM; IC70 (LNCaP [3]): 3.61 µM; IC70 (VCaP [4]): 13.8 µM; IC50 (LNCaP [5]): 3.28 µM; IC70 (LNCaP [5]): 3.55 µM; IC50 (DU-145 [6]): 6.16 µM; IC70 (DU-145 [6]): 7.59 µM; IC50 (CWR22R [7]): 4.47 µM; IC70 (CWR22R [7]): 5.88 µM; IC50 (VCaP [8]): 4.66 µM; IC70 (VCaP [8]): 9.39 µM
CC(O)(CSc1ccccc1C(F)(F)F)C(=O)Nc1ccc(C#N)c(C(F)(F)F)c1 (stereo unspecified) | 5.06 | 7.73 | 4.91 | 7.51 | – | – | Dose-dependent effect | 0.425 | half-life at 3 µM ([12]; liver microsomes): 3.66 min; AC50 (HepG2): 25.8 µM; minimal effective concentration (HepG2): 14.7 µM; microsomal CLint at 3 µM (in vitro; liver microsomes): 379 µL/min/mg
CC1(C)C(=O)N(c2ccc(C(F)(F)F)cc2)C(=O)N1c1ccc([N+](=O)[O-])cc1C(F)(F)F | 16.4 | 100 | 3.73 | 100 | Soluble | Soluble | Dose-dependent effect | 0.265 | –
CC(O)(CSc1cccc(C(F)(F)F)c1)C(=O)Nc1ccc(C#N)c(C(F)(F)F)c1 (stereo unspecified) | 5.56 | 10.6 | 5.03 | 9.23 | Soluble | Soluble | – | – | half-life at 3 µM ([12]; microsomes): 5.97 min; Papp A→B at 2 h, 10 µM [13]: 3.92 ×10⁻⁶ cm/s; Papp B→A at 2 h, 10 µM [14]: 4.73 ×10⁻⁶ cm/s; efflux ratio at 2 h, 10 µM [15]: 1.21; AC50 (HepG2): 36.6 µM; minimal effective concentration (HepG2): 18.4 µM; microsomal CLint at 3 µM (in vitro; microsomes): 232 µL/min/mg
CC1(C)C(=O)N(c2cccc(C(F)(F)F)c2)C(=O)N1c1ccc([N+](=O)[O-])cc1C(F)(F)F | 5.01 | 7.88 | 4.07 | 13.3 | Soluble | Soluble | Dose-dependent effect | 0.111 | –
CC(C)NCC(O)COc1cccc2ccccc12 (stereo unspecified) [PROPRANOLOL] | – | – | – | – | – | – | – | – | Papp A→B at 2 h, 10 µM [13]: 40.3 ×10⁻⁶ cm/s; Papp B→A at 2 h, 10 µM [14]: 41.6 ×10⁻⁶ cm/s; efflux ratio at 2 h, 10 µM [15]: 1.03
CC(O)(CS(=O)(=O)c1ccc(F)cc1)C(=O)Nc1ccc(C#N)c(C(F)(F)F)c1 (stereo unspecified) [BICALUTAMIDE] | 49.6 | 49.2 | 45.3 | 68.4 | – | – | – | – | IC70 (CWR22R [1]): 65.1 µM; IC70 (DU-145 [2]): 61.3 µM; IC70 (LNCaP [3]): 59.1 µM; IC70 (VCaP [4]): > 100 µM; IC50 (LNCaP [5]): 47.3 µM; IC70 (LNCaP [5]): 60.9 µM; IC50 (DU-145 [6]): 46 µM; IC70 (DU-145 [6]): 58.3 µM; IC50 (CWR22R [7]): 48.5 µM; IC70 (CWR22R [7]): 64.1 µM; IC50 (VCaP [8]): 64.7 µM; IC70 (VCaP [8]): 97.3 µM
CC(O)(COc1cccc(OC(F)(F)F)c1)C(=O)Nc1ccc([N+](=O)[O-])c(C(F)(F)F)c1 (stereo unspecified) | 9.31 | 13.1 | 9.95 | 9.6 | Soluble | Soluble | Dose-dependent effect | 0.407 | –
CC(O)(COc1ccc(C#N)cc1C(F)(F)F)C(=O)Nc1ccc(C#N)cc1C(F)(F)F (stereo unspecified) | 18.4 | 27.5 | 9.39 | 17.7 | Soluble | Soluble | Dose-dependent effect | 0.736 | –
O=C(Nc1ccc([N+](=O)[O-])c(C(F)(F)F)c1)C(O)(CSc1ccccc1C(F)(F)F)C(F)(F)F (stereo unspecified) | 1.28 | 2.4 | 0.719 to 0.72 | 2.78 | Soluble | Soluble | Dose-dependent effect | 0.245 | IC70 (CWR22R [1]): 1.7 µM; IC70 (DU-145 [2]): 2.76 µM; IC70 (LNCaP [3]): 1.2 µM; IC70 (VCaP [4]): 5.73 µM; IC50 (LNCaP [5]): 0.828 µM; IC70 (LNCaP [5]): 1.33 µM; IC50 (DU-145 [6]): 2.36 µM; IC70 (DU-145 [6]): 2.7 µM; IC50 (CWR22R [7]): 1.27 µM; IC70 (CWR22R [7]): 1.65 µM; IC50 (VCaP [8]): 2.43 µM; IC70 (VCaP [8]): 4.8 µM
CC(O)(COc1ccccc1C(F)(F)F)C(=O)Nc1ccc([N+](=O)[O-])c(C(F)(F)F)c1 (stereo unspecified) | 20.2 | 35.2 | 22.6 | 27.2 | Soluble | Soluble | Dose-dependent effect | 0.183 | –
CC(O)(COc1ccccc1OC(F)(F)F)C(=O)Nc1ccc([N+](=O)[O-])c(C(F)(F)F)c1 (stereo unspecified) | 6.6 | 9.88 | 7.04 | 9.61 | Soluble | Soluble | Dose-dependent effect | 0.198 | –
CC1(C)C(=O)N(c2cccc(C(F)(F)F)c2)C(=O)N1c1cccc(C(F)(F)F)c1 | 60.7 | 100 | 5.61 | 75.7 | Soluble | Soluble | Dose-dependent effect | 0.123 | –
CC1(C)C(=O)N(c2ccc(C(F)(F)F)cc2)C(=O)N1c1ccc(C#N)cc1C(F)(F)F | 100 | 100 | 8.36 | 100 | Soluble | Soluble | Dose-dependent effect | 0.402 | –
C[C@](O)(CSc1cccc(C(F)(F)F)c1)C(=O)Nc1ccc(C#N)c(C(F)(F)F)c1 | 13.1 | 19.4 | 14.3 | 8.91 | Soluble | Soluble | – | – | half-life at 3 µM ([12]; microsomes): 4.59 min; Papp A→B at 2 h, 10 µM [13]: 6.84 ×10⁻⁶ cm/s; Papp B→A at 2 h, 10 µM [14]: 12.2 ×10⁻⁶ cm/s; efflux ratio at 2 h, 10 µM [15]: 1.78; AC50 (HepG2): 34.6 µM; minimal effective concentration (HepG2): 26.6 µM; microsomal CLint at 3 µM (in vitro; microsomes): 302 µL/min/mg
CC(O)(COc1ccc(OC(F)(F)F)cc1)C(=O)Nc1ccc([N+](=O)[O-])c(C(F)(F)F)c1 (stereo unspecified) | 7.53 | 10.4 | 17.7 | 19.6 | Soluble | Soluble | Dose-dependent effect | 0.625 | –
